Data as given in patent publication US10040838B2, “CRHR2 peptide agonists and uses thereof” (JANSSEN PHARMACEUTICA NV, priority 2008, dated 2018).
Residues, ends and D or L forms follow the SMILES beside them. *: point of attachment. Succinimide(1-Et,3-yl) = CCN1C(=O)CC(*)C1=O

Target: T1, human CRHR2 (Homo sapiens, UniProt Q13324)
T1 construct: expressed in transfected cells
T1 sequence (Q13324 1-411): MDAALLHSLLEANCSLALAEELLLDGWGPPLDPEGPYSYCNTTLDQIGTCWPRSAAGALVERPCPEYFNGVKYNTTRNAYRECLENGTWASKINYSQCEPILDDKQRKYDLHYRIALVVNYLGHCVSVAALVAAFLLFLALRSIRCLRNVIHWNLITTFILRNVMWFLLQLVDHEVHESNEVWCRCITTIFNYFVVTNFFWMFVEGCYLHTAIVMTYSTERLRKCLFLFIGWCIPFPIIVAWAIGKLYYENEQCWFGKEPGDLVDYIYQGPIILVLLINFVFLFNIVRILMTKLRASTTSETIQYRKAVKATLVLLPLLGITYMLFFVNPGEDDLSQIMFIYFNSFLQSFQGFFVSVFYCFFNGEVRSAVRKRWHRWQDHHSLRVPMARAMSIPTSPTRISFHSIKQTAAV
Assay: cAMP assay in h-CRHR2 transfected SK-N-MC cells
Type: cell-based
Conditions: Table 13; h-SCP control pA50 minus test compound pA50 within same assay batch
Experimental: The concentration required for 50% maximum effect (A50) was 0.4 nM.
Human CRHR1 (accession number X72304) or CRHR2 (accession number U34587) were cloned into pcDNA3.1/Zeo expression vector and stably transfected into SK-N-MC cells by electroporation. Cells were maintained in MEM w/Earl's Salt with 10% FBS, 50 I.U. penicillin, 50 μg/ml streptomycin, 2 mM L-glutamine, 1 mM sodium pyruvate and 0.1 mM nonessential amino acids, 600 μg/ml G418. Cells were grown at 37° C. in 5% CO2.
Cells were plated in 96-well tissue culture dishes (Biocoat from BD Biosciences) overnight at 50,000 cell/well. Cells were washed with PBS then resuspended in DMEM F-12 without phenol red, containing 10 μM isobutylmethylxanthine (IBMX). Cells were incubated with the peptides at concentrations ranging from 1 pM to 10 μM for 60 min at 37° Celsius. […] Forskolin (10 μM), a direct stimulant of adenylate cyclase, was used as positive control. The assays were stopped by the addition of 0.5 M HCl and mixing by orbital rotation for 2 h at 4° Celsius.
To assess the activity of the inventive peptide at the CRHR2, an intracellular cAMP measurement test using a Flash plate radioactive assay (Catalog No. Cus56088; Perkin Elmer, MA, U.S.A.) was employed.
Transfected SK-N-MC cells were plated in 96-well Biocoat tissue culture dishes (BD Biosciences, San Jose, Calif., U.S.A) overnight at 50,000 cell/well. Cells were first washed with PBS and then suspended with DMEM/F-12 without phenol red, containing […]. Suspended cells were transferred into a 96-well flash plate coated with scintillant fluid. Cells were incubated with peptides ranging from […], for 60 min, at 37° Celsius. Forskolin at 10 μM was used as positive control. After ligand stimulation, cells were lysed by the addition of 0.5M HCl and mixed by orbital rotation for 2 h at 4° Celsius in order to release intracellular cAMP into the media.
Media containing released intracellular cAMP was transferred to a 96-well flash plate coated with scintillant fluid containing an anti-cAMP antibody. In this assay, intracellular cAMP competes with ^125I-labeled cAMP binding to the antibody. To generate a standard curve, cAMP ranging from 2.5 to 250 pmoles/ml was included in the experiment. [^125I]-cAMP was measured on a TopCount scintillation counter (Perkin Elmer, MA, U.S.A).
Individual agonist concentration-response curve data were fitted to the Hill equation, see formula below, using GraphPad Prism (Graphpad Software, La Jolla, Calif., U.S.A.), to provide estimates of agonist concentration needed to generate one-half maximal response (A50), and the maximal asymptote (α) and Hill slope (nH) parameters. In this equation, [A] is the agonist concentration and E is the measured effect:
For display purposes the mean fitted parameter estimates were used to generate a single E/[A] curve shown superimposed on the mean experimental data. Potency estimates for agonists, pA50, are expressed as the negative logarithm of the midpoint of each curve and listed with their standard error of measurement (SEM). Logarithm base 10 of the agonist dose ratio (Log DR) values were calculated by subtraction of the test compound pA50 value from the corresponding h-SCP (SEQ ID NO:1) control pA50 value within the same assay batch. The SEM values of the Log DR values are given by the square root of the sum of the squared SEM values of the h-SCP (SEQ ID NO:1) control and test compound pA50 values.
Human and rat peptides (see Table 10) were used on the stimulation of h-CRHR1 or h-CRHR2 transfected SK-N-MC cells in the cAMP flash plate assay. Peptides were incubated for 1 hr at 37° Celsius. Curves were calculated using non-linear regression sigmoidal concentration-response analysis calculation in GraphPad Prism. The so obtained pA50 values are shown in Table 11 in addition to literature values. […]

Log DR | Compound
~1.72 | CC[C@H](C)[C@H](NC(=O)[C@H](CC(N)=O)NC(=O)[C@H](Cc1ccccc1)NC(=O)[C@H](CC(C)C)NC(=O)[C@H](CC(C)C)NC(=O)[C@H](CC(N)=O)NC(=O)[C@H](CCSC)NC(=O)[C@@H](NC(=O)[C@H](CC(N)=O)NC(=O)[C@@H](NC(=O)[C@@H]1CCCN1C(=O)[C@@H](NC(=O)[C@H](CC(=O)O)NC(=O)[C@H](CC(C)C)NC(=O)[C@H](CO)NC(=O)[C@H](CC(C)C)NC(=O)[C@@H](NC(=O)[C@H](Cc1ccccc1)NC(=O)[C@H](CCCCN)NC(=O)[C@@H](N)[C@@H](C)O)[C@@H](C)O)C(C)C)[C@@H](C)O)[C@@H](C)CC)C(=O)N[C@@H](C)C(=O)N[C@@H](CCCCN)C(=O)N[C@@H](C)C(=O)N[C@@H](CCCCN)C(=O)N[C@@H](CC(N)=O)C(=O)N[C@@H](CC(C)C)C(=O)N[C@@H](CCCNC(=N)N)C(=O)N[C@@H](C)C(=O)N[C@@H](CCC(N)=O)C(=O)N[C@@H](C)C(=O)N[C@@H](C)C(=O)N[C@@H](C)C(=O)N[C@@H](CC(N)=O)C(=O)N[C@@H](C)C(=O)N[C@@H](Cc1c[nH]cn1)C(=O)N[C@@H](CC(C)C)C(=O)N[C@@H](CCSC)C(=O)N[C@@H](C)C(=O)N[C@@H](CCC(N)=O)C(=O)N[C@@H](CSC1CC(=O)N(CC)C1=O)C(N)=O (stereo partly shown) [SEQ ID NO: 42, TKFTLSLDVPTNIMNLLFNIAKAKNLRAQAAANAHLMAQC(-NES)-NH2] (H-TKFTLSLDVPTNIMNLLFNIAKAKNLRAQAAANAHLMAQC(Succinimide(1-Et,3-yl))-NH2; N-terminus assumed)
−0.32 | CC[C@H](C)[C@H](NC(=O)[C@H](CCC(N)=O)NC(=O)[C@H](C)NC(=O)[C@H](CCSC)NC(=O)[C@H](CC(C)C)NC(=O)[C@H](CSC1CC(=O)N(CC)C1=O)NC(=O)[C@H](C)NC(=O)[C@H](CC(N)=O)NC(=O)[C@H](C)NC(=O)[C@H](C)NC(=O)[C@H](C)NC(=O)[C@H](CCC(N)=O)NC(=O)[C@H](C)NC(=O)[C@H](CCCNC(=N)N)NC(=O)[C@H](CC(C)C)NC(=O)[C@H](CC(N)=O)NC(=O)[C@H](CCCCN)NC(=O)[C@H](C)NC(=O)[C@H](CCCCN)NC(=O)[C@H](C)NC(=O)[C@@H](NC(=O)[C@H](CC(N)=O)NC(=O)[C@H](Cc1ccccc1)NC(=O)[C@H](CC(C)C)NC(=O)[C@H](CC(C)C)NC(=O)[C@H](CC(N)=O)NC(=O)[C@H](CCSC)NC(=O)[C@@H](NC(=O)[C@H](CC(N)=O)NC(=O)[C@@H](NC(=O)[C@@H]1CCCN1C(=O)[C@@H](NC(=O)[C@H](CC(=O)O)NC(=O)[C@H](CC(C)C)NC(=O)[C@H](CO)NC(=O)[C@H](CC(C)C)NC(=O)[C@@H](NC(=O)[C@H](Cc1ccccc1)NC(=O)[C@H](CCCCN)NC(=O)[C@@H](N)[C@@H](C)O)[C@@H](C)O)C(C)C)[C@@H](C)O)[C@@H](C)CC)[C@@H](C)CC)C(N)=O (stereo partly shown) [SEQ ID NO: 43, TKFTLSLDVPTNIMNLLFNIAKAKNLRAQAAANAC(-NES) LMAQI-NH2] (H-TKFTLSLDVPTNIMNLLFNIAKAKNLRAQAAANAC(Succinimide(1-Et,3-yl))LMAQI-NH2; N-terminus assumed)
~1.97 | CC[C@H](C)[C@H](NC(=O)[C@H](CCC(N)=O)NC(=O)[C@H](C)NC(=O)[C@H](CCSC)NC(=O)[C@H](CC(C)C)NC(=O)[C@H](Cc1c[nH]cn1)NC(=O)[C@H](C)NC(=O)[C@H](CSC1CC(=O)N(CC)C1=O)NC(=O)[C@H](C)NC(=O)[C@H](C)NC(=O)[C@H](C)NC(=O)[C@H](CCC(N)=O)NC(=O)[C@H](C)NC(=O)[C@H](CCCNC(=N)N)NC(=O)[C@H](CC(C)C)NC(=O)[C@H](CC(N)=O)NC(=O)[C@H](CCCCN)NC(=O)[C@H](C)NC(=O)[C@H](CCCCN)NC(=O)[C@H](C)NC(=O)[C@@H](NC(=O)[C@H](CC(N)=O)NC(=O)[C@H](Cc1ccccc1)NC(=O)[C@H](CC(C)C)NC(=O)[C@H](CC(C)C)NC(=O)[C@H](CC(N)=O)NC(=O)[C@H](CCSC)NC(=O)[C@@H](NC(=O)[C@H](CC(N)=O)NC(=O)[C@@H](NC(=O)[C@@H]1CCCN1C(=O)[C@@H](NC(=O)[C@H](CC(=O)O)NC(=O)[C@H](CC(C)C)NC(=O)[C@H](CO)NC(=O)[C@H](CC(C)C)NC(=O)[C@@H](NC(=O)[C@H](Cc1ccccc1)NC(=O)[C@H](CCCCN)NC(=O)[C@@H](N)[C@@H](C)O)[C@@H](C)O)C(C)C)[C@@H](C)O)[C@@H](C)CC)[C@@H](C)CC)C(N)=O (stereo partly shown) [SEQ ID NO: 44, TKFTLSLDVPTNIMNLLFNIAKAKNLRAQAAAC(-NES)AH LMAQI-NH2] (H-TKFTLSLDVPTNIMNLLFNIAKAKNLRAQAAAC(Succinimide(1-Et,3-yl))AHLMAQI-NH2; N-terminus assumed)
−0.01 | CC[C@H](C)[C@H](NC(=O)[C@H](CCC(N)=O)NC(=O)[C@H](C)NC(=O)[C@H](CCSC)NC(=O)[C@H](CC(C)C)NC(=O)[C@H](Cc1c[nH]cn1)NC(=O)[C@H](C)NC(=O)[C@H](CC(N)=O)NC(=O)[C@H](CSC1CC(=O)N(CC)C1=O)NC(=O)[C@H](C)NC(=O)[C@H](C)NC(=O)[C@H](CCC(N)=O)NC(=O)[C@H](C)NC(=O)[C@H](CCCNC(=N)N)NC(=O)[C@H](CC(C)C)NC(=O)[C@H](CC(N)=O)NC(=O)[C@H](CCCCN)NC(=O)[C@H](C)NC(=O)[C@H](CCCCN)NC(=O)[C@H](C)NC(=O)[C@@H](NC(=O)[C@H](CC(N)=O)NC(=O)[C@H](Cc1ccccc1)NC(=O)[C@H](CC(C)C)NC(=O)[C@H](CC(C)C)NC(=O)[C@H](CC(N)=O)NC(=O)[C@H](CCSC)NC(=O)[C@@H](NC(=O)[C@H](CC(N)=O)NC(=O)[C@@H](NC(=O)[C@@H]1CCCN1C(=O)[C@@H](NC(=O)[C@H](CC(=O)O)NC(=O)[C@H](CC(C)C)NC(=O)[C@H](CO)NC(=O)[C@H](CC(C)C)NC(=O)[C@@H](NC(=O)[C@H](Cc1ccccc1)NC(=O)[C@H](CCCCN)NC(=O)[C@@H](N)[C@@H](C)O)[C@@H](C)O)C(C)C)[C@@H](C)O)[C@@H](C)CC)[C@@H](C)CC)C(N)=O (stereo partly shown) [SEQ ID NO: 45, TKFTLSLDVPTNIMNLLFNIAKAKNLRAQAAC(-NES)NAH LMAQI-NH2] (H-TKFTLSLDVPTNIMNLLFNIAKAKNLRAQAAC(Succinimide(1-Et,3-yl))NAHLMAQI-NH2; N-terminus assumed)
